Test results taken from the NIST ThermoML archive (doi:10.1016/j.fluid.2005.09.009).
Numbers after ± are expanded uncertainties.

Legend:
[1] = refractive index (Na D-line) (dimensionless); conditions: 298.15 K; 101.33 kPa; Liquid; Standard Abbe refractometry
[2] = 298.15 K; 101.33 kPa; Liquid

Row | refractive index [1] | Compound | mass density [2] [kg/m3]
1 | 1.4595 ± 0.0009 | C=CC(C)(O)CCC=C(C)C (stereo not given) [3,7-dimethyl-1,6-octadien-3-ol] | 858.08 ± 2.2
2 | 1.3325 ± 0.0008 | O [water] | –

Row | Compound | refractive index [1] | mass density [2] [kg/m3]
3 | CCO [ethanol] | 1.3593 ± 0.0007 | 785.12 ± 0.31
